Consider five molecules from patent US20050014767A1, “Benzoxazole, benzothiazole, and benzimidazole derivatives for the treatment of cancer and other diseases” (priority 2003, published 2005).

“Also recorded” adds a separate entry of the source.

One data set concerns MDA-MB468 cells. The data set is described as follows: MTT assay, breast cancer cell line. In kind it is cell-based, human. The settings on record: 1x10^-8 to 1x10^-5 M, FIG. 8. From the text: (§1) Representative compounds of the invention were screened for anti-cancer activity by the procedures and methods described below. The following human cancer cell lines were used to detect anti-cancer activity. • The breast cancer cell line MDA-MB468 served to detect anti-breast cancer activity. • The prostate cancer cell line PC-3 was used to detect anti-prostate cancer activity • The non-small-cell lung cancer cell line A549 was used to detect anti-lung cancer activity • The pancreatic cancer cell line BX-PC-3 was used to detect anti-pancreatic cancer activity. • Cell lines were purchased from American Type Culture Collection (ATCC). Cell Culture conditions:
(§2) The cancer cell cultures were grown as recommended by the ATTC manuals. A549 cells and BX-PC-3 cells were grown in DME Dulbecco's modified Eagle's medium containing 4500 mg/L glucose; 4 mM L-glutamine; 10 U/ml Pen-G; 10 mcg/ml […] and 10% fetal calf serum (FCS). PC-3 and MDA-MB468 cells were grown in RPMI medium 1640 containing 2 mM L-glutamine; 10 U/ml Pen-G; 10 mcg/ml Streptomycin and 10% FCS. Cells were kept at 6% CO2 and 37° C. Cells were seeded on day zero in 96-well format tissue culture plates at suitable densities the day before starting treatment, in the media indicated above.
(§3) On day one, the compounds of the invention were added to the culture media of growing cells, containing 10% […]. The cell media contained the compounds of the invention at one of six concentrations: 1×10^−8, 5×10^−8, 1×10^−7, 5×10^−7, 1×10^−6, and 1×10^−5M. In control experiments, 0.1% DMSO was used as vehicle control, and never exceeded 0.1% final concentration. On day four the media was removed from the cells and replaced with fresh media containing the compounds of the invention and FCS at the appropriate concentrations.
(§4) On day five 10 μl of 5 mg/ml MTT dye was added to each well containing a cell culture. […] On day 6 the formazan crystals formed were solubilized and the resulting colored solution quantified using a scanning multiwell spectrophotometer at a wavelength of 595 nm. […]
For orientation: Tetrazolium dyes change colour on reduction, which living cells bring about.

The subject of the next data set is PC-3 cells. The experiment in a line: MTT assay, prostate cancer cell line. The settings on record: PC-3 prostate cancer cells; 1x10^-8 to 1x10^-5 M; FIG. 9. The data set is classed as cell-based, human.
Description: as §1, §2, §3, §4

Another data set relates to A549 cells. The experiment in a line: MTT assay, non-small-cell lung cancer cell line. The data set is classed as cell-based, human. The settings on record: 1x10^-8 to 1x10^-5 M, FIG. 7.
Description: as §1, §2, §3
On day five 10 μl of 5 mg/ml MTT dye was added to each well containing a cell culture. The MTT assay is based on the dehydrogenase activity in active mitochondria for cleavage of the yellow tetrazolium salt MTT to produce purple formazan crystals. This conversion of MTT only occurs in living cells with intact/functional mitochondria. After addition of MTT, the cells were incubated for additional 4 hours at 6% CO2 and 37° C. Reaction was then stopped by adding 100 μl/well of a solubilization solution consisting of 10% Sodium Dodecyl Sulfate (SDS) and 10 mM HCl. On day 6 the formazan crystals formed were solubilized and the resulting colored solution quantified using a scanning multiwell spectrophotometer at a wavelength of 595 nm.
The procedure of Example 21 was employed to measure the anti-cancer activity of compounds 1 & 2 of the invention and compare them with equivalent activity tests for Comparative Compound 4, whose synthesis is given in Example 4. […]

Another data set deals with BX-PC-3 cells. The data set is described as follows: MTT assay, pancreatic cancer cell line. In kind it is cell-based, human. The settings on record: BX-PC-3 pancreatic cancer cells; 1x10^-8 to 1x10^-5 M; FIG. 10.
Description: as §1, §2, §3, §4

Data set [1] relates to phosphorylated JNK proteins. The experiment in a line: Western Blot assay for JNK protein phosphorylation in H292 lung cancer cells. The settings on record: 2.5 micromolar, 16 hours, FIG. 15. In kind it is cell-based, human. How it is done: Phosphorylated JNK proteins can be specifically detected by employing an antibody specific to phosphorylated JNK, followed by Western Blotting analysis. […] In particular, the human lung cancer cell line H292, purchased from the American Type Culture Collection (ATCC) (Manassas, Va.), was tested for JNK-activation induced by compounds 1, 2, 11, and 12 described herein.
H292 cells were grown in RPMI medium 1640 containing 2 mM L-glutamine; 10 U/ml Pen-G; 10 mcg/ml Streptomycin and 10% FCS.
Cells were kept at 6% CO2 and 37° C. H292 cells were plated at 70% confluence (adherent growing cells covering 70% of culture plate surface area) in a 10 centimeter tissue culture dish in the medium indicated above.
Compounds 1, 2, 11, and 12 were applied to cultures of the H292 cells in the medium indicated above at a concentration of 2.5 micromolar. DMSO (dimethyl sulfoxide, Sigma, St. Louis, Mo.) was used as vehicle control, and never exceeded 0.1% final concentration. Treatment was for 16 hours.
At the end of incubation of the cultured cells with the test compounds, the medium was removed and the plated cells were washed twice with cold PBS (phosphate buffer saline). Excess PBS was aspirated away and the cells were lysed and scraped into sample buffer containing 50 mM HEPES pH 7.5 (buffer), 150 mM NaCl, 0.1% Tween 20 (a detergent, Biorad, Hercules, Calif.), 20 mM NaF, 10 mcg/mL aprotinin, 10 mcg/mL leupeptin. Samples were incubated on ice for 15 minutes and insoluble material was pelleted by microfugation. Protein concentrations for each sample were determined using BSA (Bovine serum albumin, Sigma, St Louis, Mo.) as a standard in a colorimetric protein quantification assay (BioRad, Hercules, Calif.).
100 mcg of each sample of cellular lysate were subjected to electrophoresis on 12% SDS-PAGE (polyacrylamide gel electrophoresis) gels (BioRad, Hercules, Calif.). Proteins were transferred to PVDF membrane. Membranes were probed with a monoclonal antibody recognizing phosphorylated JNK (Cell Signaling, Beverly, Mass.) followed by HRP(horseradish peroxidase)-conjugated goat-anti-mouse antibody (Santa Cruz Biotechnology, Santa Cruz, Calif.). Immunoreative bands were visualized by ECL (enhanced chemiluminescence, Amersham, Buckinghanshire, England) detection on film (Kodak, Rochester, N.Y.).

Take `Cc1nc2cc(-c3ccc(/C=C4\SC(=O)NC4=O)cn3)cc(C34CC5CC(CC(C5)C3)C4)c2o1` [Compound 1, 5-[6-(7-Adamantan-1-yl-2-methyl-benzoxazol-5-yl)-pyridin-3-ylmethylene]-thiazolidine-2,4-dione]: the “anti-cancer activity (MTT)” value with MDA-MB468 cells was “consistent and potent anti-cancer activity at low concentrations”; with PC-3 cells it was “consistent and potent anti-cancer activity at low concentrations”; in the data set on A549 cells it was “consistent and potent anti-cancer activity at low concentrations”; in the data set with BX-PC-3 cells, “consistent and potent anti-cancer activity at low concentrations”. In data set [1], the “phosphorylation of JNK proteins (phospho-JNK bands)” value (“phosphorylation of JNK proteins” below) is “results in the production of phosphorylated JNK proteins; also recorded: induced the phosphorylation of JNK proteins; also recorded: potent activators of the phosphorylation of JNK proteins”.
Turning to `O=C1NC(=O)/C(=C/c2ccc(-c3cc(C45CC6CC(CC(C6)C4)C5)c4ocnc4c3)nc2)S1` [Compound 2, 5-[6-(7-Adamantan-1-yl-benzoxazol-5-yl)-pyridin-3-ylmethylene]-thiazolidine-2,4-dione], the “anti-cancer activity (MTT)” value in the data set on MDA-MB468 cells is “consistent and potent anti-cancer activity at low concentrations”; with PC-3 cells it was “consistent and potent anti-cancer activity at low concentrations”; in the data set with A549 cells it was “consistent and potent anti-cancer activity at low concentrations”; in the data set with BX-PC-3 cells, “consistent and potent anti-cancer activity at low concentrations”. Further, the “phosphorylation of JNK proteins” value in data set [1] is reported as “results in the production of phosphorylated JNK proteins; also recorded: induced the phosphorylation of JNK proteins; also recorded: potent activators of the phosphorylation of JNK proteins”.
Turning to `Cc1nc2cc(-c3ccc(/C=C4\SC(=O)NC4=O)cn3)cc(C3CCCCC3)c2o1` [Compound 11, 5-[6-(7-Cyclohexyl-2-methyl-benzoxazol-5-yl)-pyridin-3-ylmethylene]-thiazolidine-2,4-dione], the melting point (as a rule, the temperature of the solid-liquid transition) fell in the range of 314 to 316 °C. For the same molecule, in the data set with A549 cells, the “anti-cancer activity (MTT)” value is “only relatively weak activity”. Further, the “phosphorylation of JNK proteins” value in data set [1] was “only weakly induced the phosphorylation of JNK proteins”.
As to `O=C1NC(=O)/C(=C/c2ccc(-c3cc(C4CCCCC4)c4ocnc4c3)nc2)S1` [Compound 12, 5-[6-(7-Cyclohexyl-benzoxazol-5-yl)-pyridin-3-ylmethylene]-thiazolidine-2,4-dione], the “phosphorylation of JNK proteins” value in data set [1] is listed as “results in the production of phosphorylated JNK proteins; also recorded: activates the phosphorylation of JNK proteins, though perhaps less potently than compound 1 or 2”.
On to `Nc1nc2cc(-c3ccc(/C=C4\SC(=O)NC4=O)cn3)cc(C34CC5CC(CC(C5)C3)C4)c2o1` [Compound 14, 5-[6-(7-Adamantan-1-yl-2-amino-benzoxazol-5-yl)-pyridin-3-ylmethylene]-thiazolidine-2,4-dione], for which the “anti-cancer activity (MTT)” value in the data set with MDA-MB468 cells was “consistent and potent anti-cancer activity at low concentrations”; in the data set with PC-3 cells, “consistent and potent anti-cancer activity at low concentrations”; in the data set on A549 cells it was “consistent and potent anti-cancer activity at low concentrations”; in the data set on BX-PC-3 cells it was “consistent and potent anti-cancer activity at low concentrations”.
